Results: a melting point compilation (Tetko et al.; mined from patent text by program, amines drawn as free bases though some values may be those of a salt)

melting point [°C]	SMILES
112	O=C(O)CCCCCCCCN1C(=O)C(c2ccccc2)N(c2ccccc2)C1=O (stereo not drawn)
150 to 151	CCOC(=O)C(=O)Nc1ccc2ccccc2c1NC(=O)C(=O)OCC
230 to 235	Nc1nc2c(Cl)cc(F)c(-c3ncc(C(F)(F)F)cc3Cl)c2s1
149 to 151	CCCN(CCC)CC1CCCCN1CCNC(=O)N1c2ccccc2NC(=O)c2cccnc21 (stereo not drawn)
225 to 226	CCCCCCCCCCCCc1ccc2nc3c(c(O)c2c1)CCCC3
192	Cc1ccc(CCO)c(NCc2ccc3nc(NCCCN4CCOCC4)n(Cc4ncccc4O)c3c2)c1
163 to 165	O=C1CCC(N2C(=O)c3ccc(CNC(=O)C4CC4)cc3C2=O)C(=O)N1 (stereo not drawn)
184 to 185	CC(=O)c1ccc(NC(=O)NCCCN(CCCNC(=O)Nc2ccc(C(C)=O)cc2)CCCNC(=O)Nc2ccc(C(C)=O)cc2)cc1
> 260	Cc1ccc(NC(=O)NCc2cccc3c2CN(C2CCC(=O)NC2=O)C3=O)cc1Cl (stereo not drawn)
48 to 50	CC(C)CNC(=O)/C=C/C=C/CCCCCCOCc1cccc(C(F)(F)F)c1
129 to 131	CNC(=O)c1cccc(C=O)c1O
222 to 224	Cc1ccc(-c2c(-c3ccc(S(C)(=O)=O)cc3)cnn(-c3cccc(Cl)c3)c2=O)cc1
231 to 233	COc1ccc(-c2oc3c(CC=C(C)C)c(OC4OC(CO)C(O)C(O)C4O)cc(O)c3c(=O)c2OC2OC(C)C(O)C(O)C2O)cc1 (stereo not drawn)
275 to 277	Cc1cc(C)c2nc3n(c(=O)c2c1)-c1ccc(F)cc1C3=O
160 to 161	CCc1nn(-c2ccccn2)c2nc3cc(F)c(F)cc3c(Cl)c12
218 to 219	N#Cc1ccc2c(c1)CS(=O)(=O)NN=C2c1ccc(F)cc1
247 to 249	CCc1cccc(CC)c1NC(=O)NC1CCC(c2ccccc2)CC1 (stereo not drawn)
117	CCOc1ccc([N+](=O)[O-])c(NC2CCOCC2)c1
131 to 136	O=Cc1ccc(/C=C/c2ccncc2)nc1
348 to 349	O=C(O)c1ccc(C=Cc2ccc(-c3cc4ccccc4o3)cc2)cc1
127 to 128	Cc1oc(-c2ccccc2)nc1CCOc1ccc(/C=C/CO)cc1
266	CS(=O)c1cc(CCC(=O)O)nc(-c2nc(=O)c3ccccc3s2)c1 (stereo not drawn)
179 to 180	O=c1ccn(-c2ccccc2)nc1-c1ccnn1-c1ccccc1
208 to 210	CCCN1C(=O)c2cccnc2NS1(=O)=O
86.1 to 88.3	O=C(O)CCc1ccc2c(c1)OCO2

melting point [°C]	SMILES
222 to 223	CCOC(=O)C1(C(=O)OCC)Oc2ccc(CN/C=C3\C(=O)NC(=O)c4ccc(Br)cc43)cc2O1
226 to 228	Cc1cn2nc(-c3ccccc3)nc2cc1NC(=O)c1c(C(=O)N2CCC2)cnn1C
129 to 130	CC1CN(C)N(c2cc(Cl)cc(Cl)c2)C(=O)N1 (stereo not drawn)
144 to 146	O=C1c2ccccc2CN1C1CCNCC1
114 to 115	Nc1[nH]ncc1C(=O)c1cccs1
108 to 110	CCOC(=O)c1cn(CCNC(=O)OC(C)(C)C)c(Br)c1-c1cccc(F)c1
77.5 to 78	CCCn1c(-c2ccc3c(c2)OCO3)nc2ccccc21
143	O=C(CCc1cccc2[nH]ccc12)c1ccccc1O
210 to 212	O=C(CN1CCC(Cc2ccccc2)CC1)Nc1ccc2[nH]c(=O)oc2c1
85.3 to 87.6	COC(=O)C1=C(SC)N(c2c(C)cc(C)cc2Cl)CCC1
179 to 181	Nc1nc(Cl)c(Cl)c(NCC2(CO)CCC2)n1
208 to 209	N#Cc1cnn2c1NCC=C2c1ccc(Cl)cc1
157 to 159	CCCCc1cc(Br)c(N=Nc2ccc(N(CCO)CCO)cc2NC(C)=O)c(Br)c1
248 to 250	CCOC(=O)c1ncn2c1CNc1ccccc1-2
46 to 49	c1ccc(CCOCCOc2ccc(OCc3ccccc3)cc2)cc1
114 to 115	CCOc1nn(-c2ccc(C(F)(F)F)cc2)cc1CCCOc1ccccc1CC(=O)O
58 to 60	C#CCOc1cc2ccccc2cc1COC(=O)C1CC1
146 to 149	COc1ccc(-c2nc(C(F)F)oc2-c2ccc(OCCNC(N)=O)cc2)cc1
133	CCCCCc1ccc(OCC23CCC(CCC)(CC2)CC3)c(C#N)c1C#N
35 to 41	Fc1ccc(C=C(c2ccccc2)C(F)(F)F)cc1
138 to 139	CON(c1ccc([N+](=O)[O-])cc1Cl)S(=O)(=O)c1ccc(Cl)c([N+](=O)[O-])c1
168 to 170	c1ccc(COc2ccc3[nH]c(-c4ccccc4)cc3c2)cc1
229 to 234	O=C1COc2ccc(C3=Cc4cc(F)ccc4SC3)cc2N1
99 to 101	O=C(O)C1CSCCC12OCCO2 (stereo not drawn)
87 to 89	Cc1ccc(S(=O)(=O)OCC2CCc3cc(Br)ccc3C2)cc1 (stereo not drawn)

melting point [°C]	SMILES
195	Cc1c(C(=O)Nc2ccc(N3CCC(N4CCOCC4)CC3)c(C#N)c2)cnn1CCc1ccccc1
157 to 159	CCOC(=O)C(=CNc1c[nH]nn1)C(=O)c1cc(F)c(F)cc1F
64 to 67	CCCCCCC(=O)c1ccc2occc2c1
70	CCc1c(CO)[nH]c(=O)c(I)c1Oc1cc(C)cc(C)c1
136	CC(=O)C1C(=O)CC(CCS(=O)(=O)c2ccc(C(F)(F)F)cc2)CC1=O (stereo not drawn)
150 to 151	CCCc1nc(NC)sc1-c1ccncc1
97 to 98	COC(=O)C=Cc1ccc(-c2ccccc2C(F)(F)F)c(C(F)(F)F)c1
221 to 222	NC(=O)c1nnn(Cc2ccc(Cl)c(Cl)c2)c1N
119 to 120	CNn1c(SC)nnc(-c2ccccc2)c1=O
131 to 136	CCC(=CC(CNC(=O)c1cccnc1Cl)=NO)C(C)[N+](=O)[O-] (stereo not drawn)
128 to 130	Cc1cccc(-c2[nH]c(C(C)C)nc2-c2cccc(-c3ccc(C)[nH]3)c2)n1
143 to 145	CCOC(=O)CC(=O)c1cccs1
102 to 104	CCCCCCCCCCC(=O)NCCCCCCCCCCCC(=O)O
145 to 157	COC(=O)c1cc2cc(OC)c(OCCCl)cc2nc1N
56 to 60	CCOC(=O)CNCc1c(N)ccc(Cl)c1Cl
65 to 67	OCC1(CN(Cc2ccccc2)Cc2ccccc2)CCN(Cc2ccccc2)C1 (stereo not drawn)
205 to 208	COC(=O)CC1Sc2ccc([N+](=O)[O-])cc2CN(CCc2ccccc2)C1=O (stereo not drawn)
89 to 93	Oc1cccc2c1CC1C(C2)C1(Cl)Cl (stereo not drawn)
187 to 188	COc1ccc(-c2nc3ccccc3n3cncc23)cc1
76 to 78	O=C(C=Cc1ccc[nH]1)c1ccccc1Br
70	CCN(CC)C(=O)C(C)Cc1cc(-c2ccccc2)cc2ccccc12 (stereo not drawn)
225 to 228	COc1ccccc1C(c1ccnc2ccccc12)C(C#N)(Cc1cccnc1)C(=O)OC(C)(C)C (stereo not drawn)
75 to 77	CCOC(=O)C(Cc1ccc(OCCN2CCC(C)(C)c3cc(C(=O)c4ccccc4)ccc32)cc1)Nc1ccccc1C(=O)c1ccccc1 (stereo not drawn)
146 to 147	Oc1cccc(C#CC=Cc2cccc(O)c2)c1
155 to 156	CSc1cccc(-n2cnc(-c3ccc(F)cc3)c2-c2ccncc2)c1

melting point [°C]	SMILES
193	CC(C)(C)CC(=O)N[C@H]1CC[C@H](CCN2CCC(c3cccc4c3CCO4)CC2)CC1
134 to 135	Cc1nc2c(N)nc3c(c2n1CCCCNC(=O)N1CCOCC1)CCCC3
157 to 158	ON=C1CCCc2occ(-c3cccc(Cl)c3)c21
82 to 83	CCCCC(CC)COC(=O)C(=Cc1ccc(-c2nc3ccccc3o2)cc1)C(=O)CC (stereo not drawn)
174 to 176	CCOC(=O)c1cc(C(=O)CBr)[nH]n1
136 to 139	CC(C)=CCOc1ccc(C(=O)C=Cc2ccc(C(C)(C)C)cc2)c(OCC(=O)O)c1
204 to 206	CCn1ccnc1CNC(=O)c1[nH]c2ccc(Cl)cc2c1S(=O)(=O)c1ccccc1
83 to 84	CCOC(=O)c1c(CC)nn2c(-c3ccccc3)ccnc12
102 to 107	CN(C)c1cccc2c(S(=O)(=O)N3CCC(NC(=O)Nc4ccc(OC(F)(F)F)cc4)CC3)cccc12
191 to 193	Cc1c(C)c2c(c(Br)c1N)C(c1ccc(C(C)C)cc1)CO2 (stereo not drawn)
114 to 115	CS(=O)(=O)N(Cc1ccco1)CC(O)(Cn1cncn1)c1ccc(Cl)cc1Cl (stereo not drawn)
199 to 202	O=[N+]([O-])c1ccc(-n2ccnc2SCc2ccccc2N2CCOCC2)nc1
137 to 139	O=C1N(Cc2noc(C(F)F)n2)c2ccccc2C12COc1cc3c(cc12)OCO3 (stereo not drawn)
236 to 238	Cc1cc(O)c2c3c(oc(=O)c2c1)C(=O)c1c(O)cccc1C3=O
114 to 115	C=CCOC(=O)c1c(C)nc2c(cnn2CCC#CC)c1N
159 to 162	Cc1nc2c(N)nc3c(c2n1CCCCS(=O)(=O)c1ccc(F)cc1)CCCC3
254 to 256	CCc1cc(C(=O)c2ccccc2Cl)c(-n2c(Cl)nnc2CNC(=O)c2cc3ccccc3[nH]2)s1
255 to 260	O=C1c2cccc3c([N+](=O)[O-])ccc(c23)C(=O)N1O
36 to 37	CCC(=O)c1ccc(C#C[Si](C)(C)C)cc1
63 to 65	COc1cc(C(C)=O)cc(N)c1OC
170 to 171	O=C1c2ccccc2C(=O)N1C/C=C/COc1ccc(-n2ccnc2)cc1
69 to 71	CCOCCCCC(=O)c1ccc(S(C)=O)cc1 (stereo not drawn)
256 to 258	O=C(O)c1cn2c3c(cccc3c1=O)CCC2
113 to 114	NC(=O)CC1C=CC=CC1(F)F (stereo not drawn)

SMILES	melting point [°C]
NC(Cc1ccc(O)c(O)c1)P(O)O (stereo not drawn)	237 to 238
CCNCCc1c[nH]c2ccc(Cn3cncn3)cc12	106 to 107
CCOC(=O)c1nc(C)n2c1CN=C(c1ccccc1Cl)c1cc(Cl)ccc1-2	214 to 215
Cc1ccccc1C(c1c[nH]cn1)c1ccccc1C	228 to 231
